# Reference: US6201025A, “N-aralkylaminotetralins as ligands for the neuropeptide Y Y5 receptor” (Ortho-McNeil Pharmaceutical, Inc., priority 1999, dated 2001)
# Counter-ions that a name gives are not always drawn. Like-named read-outs stand apart in the source and are kept apart here.
# Target: T1, human neuropeptide Y5 receptor (Homo sapiens, UniProt Q15761)
# T1 construct: expressed in transfected cells; cell membranes
# T1 sequence (Q15761 1-445): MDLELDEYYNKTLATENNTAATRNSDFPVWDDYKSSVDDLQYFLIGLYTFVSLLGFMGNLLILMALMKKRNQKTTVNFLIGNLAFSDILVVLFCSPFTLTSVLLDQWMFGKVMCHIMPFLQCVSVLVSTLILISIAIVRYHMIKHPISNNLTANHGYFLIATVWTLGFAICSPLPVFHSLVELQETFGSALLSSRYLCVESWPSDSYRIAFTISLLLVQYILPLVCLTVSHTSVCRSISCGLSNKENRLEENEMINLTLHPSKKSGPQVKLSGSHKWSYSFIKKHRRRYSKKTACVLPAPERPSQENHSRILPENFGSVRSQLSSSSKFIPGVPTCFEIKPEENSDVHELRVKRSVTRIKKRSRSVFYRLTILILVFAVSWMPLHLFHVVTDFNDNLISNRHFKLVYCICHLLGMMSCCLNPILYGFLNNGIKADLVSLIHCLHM
# Test: NPY5 HTS Centrifugation Assay: competition of 125I-PYY binding to membranes of NPY5-transfected HEK293 cells
# Conditions: for inhibition at 3 µM: read-out: % Inhibition of 125I-PYY Binding @ 3 uM; for inhibition at 30 µM: read-out: % Inhibition of 125I-PYY Binding @ 30 uM
# Description: The compounds described in this invention were evaluated for binding to the human neuropeptide Y5 receptor.
# Stably transfected cells served as the source for the membranes for the NPY5 receptor binding assay.
# NPY5-transfected HEK293 cells were grown to confluence in 150 cm^2 culture dishes. […] Cells were then incubated in phosphate-buffered saline without Calcium and without Magnesium, supplemented with 2 mM EDTA. Cells were incubated for 10 minutes at room temperature and the cells were collected by repetitive pipeting. Cells were formed into pellets and then frozen at -80° C. until needed. Frozen pellets were homogenized with a polytron at full speed for 12 seconds in a homogenization buffer (20 mM Tris HCl, 5 mM EDTA, pH 7.4). Homogenates were centrifuged for 5 minutes at 4° C. at 200 g. Supernatants were transferred to corex tubes and centrifuged for 25 minutes at 28,000 g. Pellets were re-suspended in Binding (20 mM HEPES, 10 mM NaCl, 0.22 mM KH2 PO4, 1.3 mM CaCl2, 0.8 mM MgSO4, pH 7.4). Membranes were kept on ice until use.
# Compounds to be tested were prepared as 10x stocks in binding buffer and added first to assay tubes (RIA vials, Sarstedt). […] To each tube is added 100 μL of membranes and the mixture is agitated by pipeting 2 times. Samples are incubated for 1 hr at room temperature. Aluminum cast plates (Sarstedt) containing the vials are then centrifuged 10 minutes at 3200 rpm in a Sorvall RT6000. Supernatant is then aspirated. To each vial 400 μL PBS is added and this is then aspirated again. Vials are then put in carrier polypropylene 12×75 tube and counted in gamma counter (Packard). Non-specific binding is determined in the presence of 300 nM NPY.
# [1] = 3 uM, 80 pM 125I-PYY, human NPY Y5 receptor, 1 hr room temperature
# [2] = 30 uM, 80 pM 125I-PYY, human NPY Y5 receptor, 1 hr room temperature
Structure (SMILES),inhibition at 3 µM [%],inhibition at 30 µM [%],inhibition at 3 µM [1] [%],inhibition at 30 µM [2] [%]
"Fc1ccc(C[C@@H]2c3ccccc3CC[C@H]2NCCc2c[nH]c3ccccc23)cc1 (racemic) [Compound 16, rac-trans-1-(4-Fluorophenylmethyl)-N-(2-(3-indolyl)ethyl)-1,2,3,4-tetrahydro-2-naphthalenamine monooxalate]",48,101,,
c1ccc(C[C@H]2c3ccccc3CC[C@H]2NCCc2c[nH]c3ccccc23)cc1 (relative stereo) [Compound 8],,,73,105
"COc1ccc2c(c1)[C@H](Cc1ccccc1)[C@H](NCCc1c[nH]c3ccccc13)CC2 (relative stereo) [Compound 18, rac-cis-1-(Phenylmethyl)-7-methoxy-N-(2-(3-indolyl)ethyl)-1,2,3,4-tetrahydro-2-naphthalenamine 0.8 fumarate 0.8 methanol 0.2 hydrate]",,,61,104
COc1ccc2c(c1)CC[C@@H](NCCc1ccc(Oc3ccccc3)cc1)[C@H]2Cc1ccccc1 (relative stereo) [Compound 36],,,35,87
COc1ccc(C[C@H]2c3ccc(OC)cc3CC[C@H]2NCCc2ccc(OC)c(OC)c2)cc1 (relative stereo) [Compound 34],,,89,103
"COc1ccccc1C(=O)N[C@@H]1CCc2ccccc2[C@@H]1Cc1ccccc1 (relative stereo) [Compound 17, rac-cis-1-(Phenylmethyl)-N-(2-methoxyphenyl-2-oxomethyl)-1,2,3,4-tetrahydro-2-naphthalenamine monohydrobromide]",,,65,98
COc1cccc(C[C@H]2c3ccc(OC)cc3CC[C@H]2NCCc2ccc(OC)c(OC)c2)c1 (relative stereo) [Compound 32],,,44,97
"COc1ccccc1CN[C@H]1CCc2ccccc2[C@H]1Cc1ccc(F)cc1 (racemic) [Compound 12, rac-cis-1-(4-Fluorophenylmethyl)-N-(2-methoxyphenylmethyl)-1,2,3,4-tetrahydro-2-naphthalenamine monohydrobromide]",,,16,98
COc1ccc2c(c1)CC[C@@H](NCCc1ccc(Cl)c(Cl)c1)[C@H]2Cc1ccccc1 (relative stereo) [Compound 31],,,31,93
"Fc1ccc(CCN[C@@H]2CCc3ccccc3[C@@H]2Cc2ccccc2)cc1 (relative stereo) [Compound 14, monohydrobromide]",,,13,98
COc1ccc(CCN[C@@H]2CCc3cc(OC)ccc3[C@@H]2Cc2ccccc2)cc1 (relative stereo) [Compound 30],,,62,99
"COc1ccc(CCN[C@H]2CCc3ccccc3[C@H]2Cc2cccnc2)cc1OC (relative stereo) [Compound 28, rac-cis-1-(3-pyridylmethyl)-N-(2-(3,4-dimethoxyphenyl)ethyl-1,2,3,4-tetrahydro-2-naphthalenaminemonohydrobromide]",,,11,66
COc1ccc2c(c1)CC[C@@H](NCCc1ccccc1)[C@H]2Cc1ccccc1 (relative stereo) [Compound 29],,,33,95
"COc1ccccc1CN[C@H]1CCc2ccccc2[C@H]1Cc1ccccc1 (racemic) [Compound 11, rac-cis-1-(Phenylmethyl)-N-(2-methoxyphenylmethyl)-1,2,3,4-tetrahydro-2-naphthalenamine]",,,21,96
"COc1ccc2c(c1)[C@@H](Cc1ccccc1)[C@H](NCCc1c[nH]c3ccccc13)CC2 (racemic) [Compound 19, rac-trans-1-(Phenylmethyl)-7-methoxy-N-(2(3-indolyl)ethyl)-1,2,3,4-tetrahydro-2-naphthalenamine monooxalate]",49,,,
"Fc1ccc(C[C@@H]2c3ccccc3CC[C@@H]2NCCCc2ccccc2)cc1 (racemic) [Compound 24, rac-cis-1-(4-Fluorophenylmethyl)-N-(3-phenylpropyl)-1,2,3,4-tetrahydro-2-naphthalenamine monohydrobromide]",,,19,102
"COc1ccccc1CN[C@@H]1CCc2ccccc2[C@H]1Cc1ccc(F)cc1 (racemic) [Compound 13, rac-trans-1-(4-Fluorophenylmethyl)-N-(2-methoxyphenylmethyl)-1,2,3,4-tetrahydro-2-naphthalenamine monooxalate]",16,89,,
"COc1ccccc1CN[C@H]1CCc2ccccc2[C@H]1Cc1ccc2ccccc2c1 (racemic) [Compound 22, rac-cis-1-(2-Naphthylmethyl)-N-(2-methoxyphenylmethyl)-1,2,3,4-tetrahydro-2-naphthalenamine monohydrobromide]",,,15,96
"c1ccc2c(c1)CC[C@@H](NCCc1c[nH]c3ccccc13)[C@@H]2Cc1ccc2ccccc2c1 (racemic) [Compound 21, rac-trans-1-(2-Naphthylmethyl)-N-(2-(3-indolyl)ethyl)-1,2,3,4-tetrahydro-2-naphthalenamine monooxalate]",33,103,,
COc1ccccc1CC(=O)N[C@@H]1CCc2ccccc2[C@@H]1Cc1ccccc1 (relative stereo) [Compound 23],,,12,47
COCCOc1ccc(CCN[C@H]2CCc3cc(OC)ccc3[C@H]2Cc2ccccc2)cc1 (relative stereo) [Compound 37],,,84,
"Fc1ccc(CN[C@H]2CCc3ccccc3[C@H]2Cc2ccccc2)cc1 (racemic) [Compound 9, rac-cis-1-(Phenylmethyl)-N-(4-fluorophenylmethyl)-1,2,3,4-tetrahydro-2-naphthalenamine monohydrobromide]",,,20,97
"COc1ccc2c(c1)[C@@H](Cc1ccccc1)[C@@H](NCc1ccccc1OC)CC2 (racemic) [Compound 15, rac-cis-1-(Phenylmethyl)-7-methoxy-N-(2-methoxyphenylmethyl)-1,2,3,4-tetrahydro-2-naphthalenamine monohydrobromide]",,,31,
COc1ccc(CCN[C@@H]2CCc3ccccc3[C@@H]2Cc2ccccc2)cc1OC (relative stereo) [Compound 35],,,47,99
COc1ccc2c(c1)CC[C@@H](NCCc1ccc(OC)c(OC)c1)[C@H]2Cc1cccc2ccccc12 (relative stereo) [Compound 33],,,16,73
"c1ccc2c(c1)CC[C@@H](NCCc1c[nH]c3ccccc13)[C@H]2Cc1ccc2ccccc2c1 (relative stereo) [Compound 20, rac-cis-1-(2-Naphthylmethyl)-N-(2-(3-indolyl)ethyl)-1,2,3,4-tetrahydro-2-naphthalenamine hemifumarate methanol]",,,27,99
"COc1ccc2c(c1)CC[C@H](NCCc1ccc(OC)c(OC)c1)[C@@H]2Cc1ccccc1 (racemic) [Compound 6, rac-cis-1-(Phenylmethyl)-6-methoxy-N-(2-(3,4-dimethoxyphenyl)ethyl)-1,2,3,4-tetrahydro-2-naphthalenamine]",,,86,101
